Data reported in ChEMBL document CHEMBL3608219, “New geranylated flavanones from the fruits of Paulownia catalpifolia Gong Tong with their anti-proliferative activity on lung cancer cells A549” (Bioorg Med Chem Lett, 2015).

Experiments:
A549 [1] = experiment: Antiproliferative activity against human A549 cells by MTT assay; assay type: functional, cell-based
A549 [2] = experiment: Cell cycle arrest in human A549 cells assessed as accumulation at G1 phase at 10 uM after 24 hrs by flow cytometry analysis (reference value: 68.78 +/- 2.43%); assay type: functional
A549 [3] = experiment: Cell cycle arrest in human A549 cells assessed as accumulation at S phase at 10 uM after 24 hrs by flow cytometry analysis (reference value: 16.23 +/- 1.73%); assay type: functional
A549 [4] = experiment: Cell cycle arrest in human A549 cells assessed as accumulation at G2/M phase at 10 uM after 24 hrs by flow cytometry analysis (reference value: 14.18 +/- 1.03%); assay type: functional

| IC50 (A549 [1]) | Structure (SMILES) | Activity (A549 [2]) | Activity (A549 [3]) | Activity (A549 [4]) |
| --- | --- | --- | --- | --- |
| 23.7 µM | COc1cc(C2CC(=O)c3c(O)cc(O)c(C/C=C(\C)CCCC(C)(C)O)c3O2)cc(O)c1O (configuration not stated) |  |  |  |
| 8.9 µM | CC(C)=CCC/C(C)=C\Cc1c(O)c(-c2c(O)c(C/C=C(/C)CCC=C(C)C)c3c(c2O)C(=O)CC(c2ccc(O)c(O)c2)O3)c(O)c2c1OC(c1ccc(O)c(O)c1)CC2=O (configuration not stated) | 88.88% | 5.05% | 5.05% |
| 18.7 µM | C=C1C(=O)[C@]23[C@H](O)[C@H]1CC[C@H]2[C@@]12CO[C@]3(O)[C@@H](O)[C@@H]1C(C)(C)CC[C@@H]2O [ORIDONIN] |  |  |  |
| 22.1 µM | COc1cc(C2CC(=O)c3c(cc(O)c(C/C=C(\C)CCCC(C)(C)O)c3O)O2)cc(O)c1O (configuration not stated) |  |  |  |
